Data from patent US20240150346A1, “CLASS OF HETEROAROMATIC COMPOUND, PREPARATION METHOD THEREFOR AND USE THEREOF” (INNOVSTONE THERAPEUTICS LIMITED, priority 2021, published 2024).
Counter-ions that a name gives are not always drawn. Like-named read-outs stand apart in the source and are kept apart here.

Molecular target: T1, human-derived receptor TLR7 (Homo sapiens, UniProt Q9NYK1)
T1 construct: host or cells: HEK-Blue hTLR7 cells (HEK293-derived reporter line)
T1 sequence (Q9NYK1 27-1049): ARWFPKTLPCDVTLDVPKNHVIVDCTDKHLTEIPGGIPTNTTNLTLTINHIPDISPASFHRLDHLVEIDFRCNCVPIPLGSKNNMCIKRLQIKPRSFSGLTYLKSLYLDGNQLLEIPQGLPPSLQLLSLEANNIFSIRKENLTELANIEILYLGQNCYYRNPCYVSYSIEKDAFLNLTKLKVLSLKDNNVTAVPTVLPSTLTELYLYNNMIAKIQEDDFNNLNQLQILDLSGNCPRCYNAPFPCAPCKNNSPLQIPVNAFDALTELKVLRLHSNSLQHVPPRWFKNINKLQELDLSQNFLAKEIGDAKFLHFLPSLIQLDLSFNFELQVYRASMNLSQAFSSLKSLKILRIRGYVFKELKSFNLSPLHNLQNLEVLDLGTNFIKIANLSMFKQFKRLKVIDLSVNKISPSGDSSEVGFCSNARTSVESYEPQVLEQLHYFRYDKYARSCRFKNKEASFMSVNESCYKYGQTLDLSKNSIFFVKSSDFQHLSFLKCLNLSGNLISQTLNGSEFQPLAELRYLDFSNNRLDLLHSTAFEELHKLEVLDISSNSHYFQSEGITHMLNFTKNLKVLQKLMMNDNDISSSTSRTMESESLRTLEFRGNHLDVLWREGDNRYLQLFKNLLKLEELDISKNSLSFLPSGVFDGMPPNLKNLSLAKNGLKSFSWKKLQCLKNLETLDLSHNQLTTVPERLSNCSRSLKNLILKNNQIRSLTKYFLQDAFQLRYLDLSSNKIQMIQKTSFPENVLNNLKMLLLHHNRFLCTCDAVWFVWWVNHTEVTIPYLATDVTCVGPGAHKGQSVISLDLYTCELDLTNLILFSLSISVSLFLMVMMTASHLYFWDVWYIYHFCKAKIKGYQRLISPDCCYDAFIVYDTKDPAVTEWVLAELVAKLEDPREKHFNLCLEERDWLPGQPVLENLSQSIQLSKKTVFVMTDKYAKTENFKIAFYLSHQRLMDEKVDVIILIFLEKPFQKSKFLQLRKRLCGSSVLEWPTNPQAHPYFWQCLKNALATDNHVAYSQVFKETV
Experiment: Assay on agonistic activity for human-derived receptor TLR7 (HEK-Blue hTLR7 cells, HEK-Blue Detection Medium)
Assay type: cell-based
Details: 16 h incubation, absorbance at 655 nm
Description: HEK-Blue™ hTLR7 cells (InvivoGen, hkb-htlr7) were cultured in a DMEM complete medium (Gibco, 12100) containing 10% FBS (Invitrogen, 10099141), 1% P/S (Invitrogen, 15140122), 10 μg/mL Blasticidin (InvivoGen, ant-bl-1), 100 μg/mL Zeocin (InvivoGen, ant-zn-1), and 100 μg/mL Normocin (InvivoGen, ant-nr-1). The cells were cultured in an incubator at 37° C. with 5% CO2. When HEK-Blue™ hTLR7 cells reached a growth density of 70%-80%, cell passage was needed.
The agonistic activity for the human-derived receptor TLR7 by HEK-Blue™ hTLR7 cells was assayed by HEK-Blue™ Detection Medium (InvivoGen, hd-det2). First, a bag of HEK-Blue™ Detection Medium powder was dissolved in 50 mL of ultra-pure sterile water for complete dissolution, and then the dissolved medium was filtered into a new 50 mL centrifuge tube through a 0.22 μm filter. Finally, antibiotics were added into the filtered detection medium until the final concentration was 1% for P/S and 100 μg/mL for Normocin. HEK-Blue™ Detection Medium was pre-heated to 37° C. in advance on the day of the assay on the activity for the TLR7 receptor, and the temperature was always maintained at 37° C.
The compound powder was dissolved in 100% DMSO (Sigma, D2650-100ML) to obtain a 10 mM stock solution, and the compound was completely dissolved by shaking with an oscillator. The stock solution of the compound was subjected to a 5-fold dilution to 2 mM with 100% DMSO. This was followed by a 3-fold serial dilution for a total of 8 concentration gradients. Then, each of the concentration gradients was subjected to a 20-fold dilution to 100 μM, 33.3 μM, 11.1 μM, 3.7 μM, 1.23 μM, […], 0.114 μM, and 0.05 μM using HEK-Blue™ Detection Medium. 20 μL of each of the dilutions was added to a 96-well cell culture plate (Corning, 3599).
On the day of the assay on the agonistic activity for the human-detived receptor TLR7, HEK-Blue™ hTLR7 cells has a growth density of 70%-80%, and the cell medium was removed. 1 mL of cell dissociation buffer (Gibco, 13151-014) was added to each 100 mm cell culture dish, and the cells were incubated in an incubator at 37° C. for 5 min. The cells were pipetted using a DMEM cell medium to obtain a single cell suspension, which was then centrifuged at 1000 rpm for 10 min to collect the cell pellet. The cell pellet was resuspended with HEK-Blue™ Detection Medium pre heated to 37° C. The cells were counted and diluted to 220,000 cells/mL. Finally, 180 μL of cell suspension (40,000 cells/well) was added to each well of the 96-well cell culture plate to which the compound had been added, and the cell suspension was mixed with the compound using a pipettor. Final concentrations of the compound were 10 μM, 3.3 μM, 1.1 μM, 0.37 μM, 0.12 μM, 0.04 μM, 0.01 μM, and 0.005 μM. After incubation in an incubator at 37° C. for 16 h, the absorbance was read at 655 nm using an M5e microplate reader (MD, USA).
The EC50 of the compound was calculated using the software GraphPad Prism (GraphPad Software, USA). The background reading of the detection culture was subtracted from the absorbance readings at 655 nm of all wells of the 96-well plate, the ratio of each well to the negative control well (the well without the compound) was calculated, and then the percentage of the ratio of each well to the positive control well (the well treated with 10 μM positive compound), i.e., the percentage of activity, was calculated. Finally, the sigmoidal dose-response (variable slope) curve between the percentage of activity and the concentration of the compound was calculated using the software GraphPad Prism to calculate the EC50 of the compound. […]

| SMILES | EC50 (read-out: EC50) [µM] | EC50 (read-out: hTLR7 EC50) [µM] |
| --- | --- | --- |
| CSc1nc2c(N)nc3ccccc3c2n1Cc1ccc(N2CCN(C)CC2)nc1 [Example 199] | < 0.05 | 0.0436 |
| CSc1nc2c(N)nc3ccccc3c2n1Cc1ccc(CN2CCCC2)cc1 [Example 40, 2-(methylthio)-1-(4-(pyrrolidin-1-ylmethyl)benzyl)-1H-imidazo[4,5-c]quinoline-4-amine] | < 0.05 | 0.055 |
| COc1cc(CN(C)C)ccc1Cn1c(SC)nc2c(N)nc3ccccc3c21 [Example 240] | < 0.05 | 0.0284 |
| COc1nc2c(N)nc3ccccc3c2n1Cc1ccc(CN2CCCC2)cc1 [Comparative Example 1, 2-methoxy-1-((4-((pyrrolidin-1-yl)methyl)phenyl)methyl)-1H-imidazo[4,5-c]quinolin-4-amine trifluoroacetate, reference compound] |  | > 10 |
